From US6436960B1, “Farnesyl transferase inhibitors having a piperidine structure and process for preparation thereof” (LG Chemical Ltd., priority 1998, dated 2002)

Legend:
Ras farnesyl transferase [1] = biological target: T1, Ras farnesyl transferase (Homo sapiens, UniProt P49354+P49356); assay: in vitro inhibitory activity for Ras farnesyl transferase, K-Ras substrate; type: biochemical
T1 construct: made in house
Description: In the present experiment, Ras farnesyl transferase produced by genetic recombination techniques according to the improved Pompliano's method (Pompliano et al., Biochemistry, 1992, 31, 3800) was used, […] Appln. No. 97-14409 was used after it has been purified according to the known method(see, Chung et al., Biochimica et Biophysica Acta, 1992, 278, 1129).
(§1) The enzyme reaction was performed in 50 μl of 50 mM Soduam HEPES buffer solution containing 25 mM of potassium chloride, 25 mM of magnesium chloride, 10 mM of DTT and 50 μM of zinc chloride. 1.5 μM of Ras substrate protein, 0.15 μM of tritium-farnesylpyrophosphate and 4.5 nM of farnesyl transferase were used.
(§2) More specifically, in the initial step, farnesyl transferase was added to the above buffer solution, reaction was maintained for 30 minutes at 37° C. and then the reaction was stopped by adding 1 ml of ethanol solution containing 1M HCl. The formed precipitates were adsorbed to GF/B filter using Hopper harvestor(Hopper #FH 225V) for filter-binding, washed with ethanol, and then radioactivity of the dried filter was measured using LKB β counter. Enzyme titer was measured in the unsaturated state of substrate where the concentrations of Ras substrate protein and farnesyl transferase have quantitative relationship. The compound according to the present invention dissolved in dimethyl sulfoxide(DMSO) was added to the reaction solution in an amount of less than 5% of the total reaction solution, and then the enzyme inhibitory activity thereof was measured. The enzyme inhibitory activity was represented by percentage of the amount of farnesyl incorporated into the Ras substrate protein in the presence of the test compound to that in the absence of the test compound. IC50 of the test compound was defined as the concentration at which 50% of the enzyme activity was inhibited.

Ras farnesyl transferase [2] = biological target: T1, Ras farnesyl transferase; assay: in vitro inhibitory activity for Ras farnesyl transferase, H-Ras substrate; type: biochemical
Description: In the present experiment, Ras farnesyl transferase produced by genetic recombination techniques according to the improved Pompliano's method (Pompliano et al., Biochemistry, 1992, 31, 3800) was used, and Ras substrate(Ras-CVLS) protein described in Korean Patent Appln. No. 97-14409 was used after it has been purified according to the known method(see, Chung et al., Biochimica et Biophysica Acta, 1992, 278, 1129).
as §1, §2

Ras farnesyl transferase [3] = biological target: T2, Ras farnesyl transferase (Rattus norvegicus, UniProt Q02293+Q04631); assay: in vivo (cellular) Ras farnesyl transferase inhibitory activity, Rat2 cells expressing C-Harvey-Ras; type: cell-based
T2 construct: endogenous in cells; host or cells: Rat2 fibroblasts transformed with C-Harvey-Ras, or with H-Ras carrying the K-Ras C-terminal polybasic lysine domain
Description: (§3) In the present experiment, Rat2 cell line which expresses C-Harvey-Ras protein having transforming activity and Rat2 cell line(Korean patent application No. 97-14409) which is transformed with fused protein of H-Ras substituted with polybasic lysine domain at C-terminus of K-Ras were used. The experiment was performed by the modified Declue's method(Declue. J. E. et al., Cancer Research, 1991, 51, 712). Hereinafter, the experimental method will be described in more detail.
(§4) 3×10^5 cells of transformed Rat2 fibroblast cell line were sprayed on 60 mm cell cultivation dish and cultivated for 48 hours in a cell incubator at 37° C. and after 50% or more of density was reached, it was treated with the test compounds. The compound according to the present invention dissolved in dimethylsulfoxide(DMSO) was used. 1% concentration of dimethylsulfoxide was used in both control and test groups. After 4 hours from the treatment with the compound, methionine labeled with 150 μCi of radioactive isotope [^35S] per 1 ml of medium was added and after cultivating for 20 hours, the cells were washed with physiological saline water. The cells were lysed using 1 ml of cold cell lysis buffer solution(50 mM of Sodium HEPES buffer solution containing 5 mM of magnesium chloride, 1 mM of DTT, 1% NP 40, 1 mM of EDTA, 1 mM of PMSF, 2 μM of leupeptin, 2 μM of pepstatin A and 2 μM of antipain) and the supernatant wherein the cells were lysed was obtained by high-velocity centrifugation of 12,000 g×5 minutes. The amount of radioisotope in the supernatant was measured and standardized to obtain a quantitative result in immunoprecipitation reaction and then, Y13-259, a monoclonal antiboby specifically binding to Ras protein(Furth, M. E. et al., J. Virol, 1982, 43, 294) was added and reacted for 15 hours at 4° C. Protein A(combined with goat anti-murine imunoglobulin antibody)-agarose suspension was added to the solution and reacted for 1 hour at 4° C. and then, to remove the unspecific binding product, immunoprecipitates were washed with a buffer solution (50 mM Tris chloride buffer solution containing 50 mM of sodium chloride, 0.5% of sodium dioxycholate, 0.5% of NP 40 and 0.1% of SDS). The precipitates were added to a buffer solution for electrophoresis and boiled and then, electrophoresis was performed using 13.5% of SDS polyacrylamide gel. After electrophoresis, the gel was fixed and dried. Then, the gel was exposed to X-ray film, developed and printed. From the result of the experiment, intensities of band of protein combined with or without farnesyl of Ras protein were measured, and the concentration of the test compound inhibiting 50% of farnesyl binding was defined as CIC50, an in vivo Ras farnesyl transferase inhibitory activity.

Ras farnesyl transferase [4] = biological target: T2, Ras farnesyl transferase; assay: in vivo (cellular) Ras farnesyl transferase inhibitory activity, Rat2 cells transformed with H-Ras fused with polybasic lysine domain of K-Ras; type: cell-based
Description: as §3, §4

[5] = recombinant Ras farnesyl transferase, K-Ras substrate, read-out: K-Ras IC50
[6] = recombinant Ras farnesyl transferase, H-Ras substrate, tritium-farnesylpyrophosphate, 30 minutes at 37° C., read-out: H-Ras IC50
[7] = Rat2 cell line expressing C-Harvey-Ras, concentration inhibiting 50% of farnesyl binding of Ras protein, read-out: H-Ras CIC50
[8] = Rat2 cell line transformed with H-Ras substituted with polybasic lysine domain at C-terminus of K-Ras, concentration inhibiting 50% of farnesyl binding, read-out: K-Ras CIC50

Compound	IC50 (Ras farnesyl transferase [1]; [5])	IC50 (Ras farnesyl transferase [2]; [6])	IC50 (Ras farnesyl transferase [3]; [7])	IC50 (Ras farnesyl transferase [4]; [8])	IC50 (Ras farnesyl transferase [1])	IC50 (Ras farnesyl transferase [2])	IC50 (Ras farnesyl transferase [3])	IC50 (Ras farnesyl transferase [4])
CCCCNC(=O)N1CCC(Cn2cncc2Cn2cc(C(=O)N(C)CCOC)c(-c3cccc4ccccc34)c2)CC1 [Compound 10, 1-{1-[1-(N-Butylcarbamoyl)-piperidin-4-ylmethyl]-1H-imidazol-5-ylmethyl}-3[N-(2-methoxyethyl)-N-methyl]carbamoyl-4-(naphthalen-1-yl)-1H-pyrrole]	10 to 1000 nM	1 to 10 nM	10 to 100 nM	1000 to 50000 nM				
CN1CCN(C(=O)c2cn(Cc3cncn3CC3CCN(C(=O)COc4ccccc4)CC3)cc2-c2cccc3ccccc23)CC1 [Compound 44, 3-(4-Methylpiperazin-1-yl)carbonyl-4-(naphthalen-1-yl)-1-[1-(1-phenoxyacetylpiperidin-4-yl)methyl-1H-imidazol-5-yl]methyl-1H-pyrrole]	11 nM	2 nM	50 nM	10000 to 50000 nM				
CC(=O)N1CCC(Cn2cncc2Cn2ccc(C(=O)c3cccc4ccccc34)c2)CC1 [Compound 37, 1-[1-(1-Acetylpiperidin-4-yl)methyl-1H-imidazol-5-yl]methyl-3-(naphthalen-1-yl)carbonyl-1H-pyrrole]					10000 to 100000 nM	350 nM	1000 to 10000 nM	10000 to 50000 nM
COCCN(C)C(=O)c1cn(Cc2cncn2CC2CCN(Cc3ccc(-c4ccccc4)cc3)CC2)cc1-c1cccc2ccccc12 [Compound 33]	10 to 100 nM	5 nM	10 to 100 nM	1000 to 10000 nM				
CN1CCN(C(=O)c2cn(Cc3cncn3CC3CCN(S(C)(=O)=O)CC3)cc2-c2cccc3ccccc23)CC1 [Compound 41, 3-(4-Methylpiperazin-1-yl)carbonyl-1-[1-(1-methylsulfonylpiperidin-4-yl)methyl-1H-imidazol-5-yl]methyl-4-(naphthalen-1-yl)-1H-pyrrole]	10 nM	3 nM	50 nM	10000 to 50000 nM				
COCCN(C)C(=O)c1cn(Cc2cncn2CC2CCN(C(=O)Cc3ccc(-c4ccccc4)cc3)CC2)cc1-c1cccc2ccccc12 [Compound 16, 1-{1-[1-(4-Biphenylacetyl)-piperidin-4-ylmethyl]-1H-imidazol-5-ylmethyl}-3-[N-(2-methoxyethyl)-N-methyl]carbamoyl-4-(naphthalen-1-yl)-1H-pyrrole]	10 to 1000 nM	1 to 10 nM	10 to 100 nM	1000 to 50000 nM				
COCCN(C)C(=O)c1cn(Cc2cncn2CC2CCN(C(=O)OCc3ccc4ccccc4c3)CC2)cc1-c1cccc2ccccc12 [Compound 20]	10 nM	6 nM	10 nM	1000 to 10000 nM				
CN1CCN(C(=O)c2cn(Cc3cncn3CC3CCN(Cc4ccc(-c5ccccc5)cc4)CC3)cc2-c2cccc3ccccc23)CC1 [Compound 56, 1-{1-[1-(4-Biphenylmethyl)piperidin-4-yl]methyl-1H-imidazol-5-yl}methyl-3-(4-methylpiperazin-1-yl)carbonyl-4-(naphthalen-1-yl)-1H-pyrrole]	20 nM	5 nM	50 nM	5000 nM				
